These results are taken from US12600728B2, “Interleukin-17 inhibitors” (priority 2020, dated 2026).

Read-outs that look alike come from different tables or passages of the source.

The target in assay [1] is biotinylated human IL-17A / AF647-labeled human IL-17RA (Homo sapiens, UniProt Q16552). Description: Human IL-17A×IL-17RA TR-FRET assay. The format is binding. Put shortly:
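Compounds tested in duplicate at each concentration; neutral controls contain all components with DMSO in place of compound.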
(Time-resolved FRET reads energy transfer from a long-lived donor to a nearby acceptor.)

Assay [2] has as its target recombinant human IL-17AA (Homo sapiens, UniProt Q16552). Nature of the assay: IL-6 release from NHDF cells, IL-17AA plus TNF-α stimulation. In kind it is cell-based. Conditions: 24 hours, IL-6 by ELISA. How it is done: IL-6 Release from NHDF Cells (Normal Human Dermal Fibroblasts)
NHDF cells isolated from normal adult mesoderm, connective tissues were cultured in fibroblast growth medium containing 2% supplement. […] The cells were allowed to adhere overnight before they were incubated with the compound/cytokine cocktail.
Diluted compounds were pre-incubated with recombinant human IL-17AA or IL-17AF plus human TNF-α for 30 minutes at room temperature on a shaker. […] The cells were incubated with the compound/cytokines cocktail for 24 hours at 37° C. (5% CO2). […] The final DMSO or plasma concentrations were 0.1% or 20%, respectively. All compound incubations were done in duplicate. The supernatants were collected to quantify IL-6 by ELISA according to the manufacturers instructions. The optical density was measured at 450 nm by an EnVision Multilabel Plate Reader (Perkin Elmer). The IL-6 levels produced after TNF-α stimulation were subtracted from the IL-6 produced after IL-17/TNF-α co-stimulation. These IL-17-specific IL-6 concentrations were used for […] value calculation.

The mark [3] stands for this setting: TR-FRET, 5 nM IL-17A, 30 nM IL-17RA, read-out: IL17AA FRET/ IL17Rawt IC50.
Where [4] appears, read: NHDF cells, IL-17AA 30 pM + TNF-α 6 pM, read-out: IL17AA + TNF IC50 IL-6.
Where [5] appears, read: TR-FRET, biotinylated human IL-17A 5 nM, AF647-labeled human IL-17RA 30 nM, read-out: IL17AA FRET/ IL17Rawt IC50.
Where [6] appears, read: NHDF cells, IL-17AA 30 pM plus TNF-α 6 pM, read-out: IL17AA + TNF IC50 IL-6.

recombinant human IL-17AA, sequence (Q16552 24-155): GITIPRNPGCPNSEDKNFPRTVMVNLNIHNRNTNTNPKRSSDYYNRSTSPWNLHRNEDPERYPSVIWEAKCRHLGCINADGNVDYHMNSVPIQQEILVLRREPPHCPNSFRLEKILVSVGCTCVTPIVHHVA
biotinylated human IL-17A / AF647-labeled human IL-17RA, sequence (Q16552 24-155): as above

Regarding `Cc1cc[n+]([O-])c(C)c1-c1ccc(NC(=O)[C@@H](NC(=O)c2conc2C)C2CCC(F)(F)CC2)cc1` [Example 162, (S)-3-(4-(2-(4,4-difluorocyclohexyl)-2-(3-methylisoxazole-4-carboxamido)acetamido)phenyl)-2,4-dimethylpyridine 1-oxide], the IC50 in assay [1] (setting [3]) is 186 nM; in assay [2] (setting [4]) it was 44 nM.

For `Cc1cc[n+]([O-])c(C)c1-c1ccc(NC(=O)[C@@H](NC(=O)c2ccnn2C)C2CCCCCC2)cc1` [Example 41, (S)-3-(4-(2-cycloheptyl-2-(1-methyl-1H-pyrazole-5-carboxamido)acetamido)phenyl)-2,4-dimethylpyridine 1-oxide], the IC50 in assay [1] (setting [5]) amounted to 24 nM; in assay [2] (setting [6]), 9 nM.

Turning to `Cc1c[n+]([O-])cc(C)c1-c1ccc(NC(=O)[C@@H](NC(=O)c2ccnn2C(C)C)C2CCCCCC2)cc1` [Example 101, (S)-4-(4-(2-cycloheptyl-2-(1-isopropyl-1H-pyrazole-5-carboxamido)acetamido)phenyl)-3,5-dimethylpyridine 1-oxide], the IC50 in assay [1] (setting [5]) was found to be 85 nM; in assay [2] (setting [6]), 22 nM.

In the case of `Cc1cc[n+]([O-])c(C)c1-c1ccc(NC(=O)[C@@H](NC(=O)c2ccc3n2CCNC3)C2CCCCC2)cc1` [Example 205, (S)-3-(4-(2-cyclohexyl-2-(1,2,3,4-tetrahydropyrrolo[1,2-a]pyrazine-6-carboxamido)acetamido)phenyl)-2,4-dimethylpyridine 1-oxide], the IC50 in assay [1] (setting [3]) was 287 nM; in assay [2] (setting [4]), 58 nM.

For the compound `Cc1c(-c2ccc(NC(=O)[C@@H](NC(=O)c3ccnn3C)C3CCCCC3)cc2)cc(CO)c[n+]1[O-]` [Example 115, (S)-3-(4-(2-cyclohexyl-2-(1-methyl-1H-pyrazole-5-carboxamido)acetamido)phenyl)-5-(hydroxymethyl)-2-methylpyridine 1-oxide], the IC50 in assay [1] (setting [5]) was determined as 1380 nM; in assay [2] (setting [6]), 201 nM.

As to `Cc1cc[n+]([O-])c(C)c1-c1ccc(NC(=O)[C@@H](NC(=O)c2ccnn2C)[C@H]2CC=C(F)CC2)cc1` (single isomer, unassigned) [Example 12a, 3-(4-((S)-2-((R)-4-fluorocyclohex-3-en-1-yl)-2-(1-methyl-1H-pyrazole-5-carboxamido)acetamido)phenyl)-2,4-dimethylpyridine 1-oxide or 3-(4-((S)-2-((S)-4-fluorocyclohex-3-en-1-yl)-2-(1-methyl-1H-pyrazole-5-carboxamido)acetamido)phenyl)-2,4-dimethylpyridine 1-oxide], the results for the IC50 in assay [1] (setting [5]) and in assay [2] (setting [6]) were 112 nM and 17 nM, respectively.

As to `Cc1c(-c2ccc(NC(=O)[C@@H](NC(=O)c3ccnn3C)C3CCCCC3)cc2)cc(Cl)c[n+]1[O-]` [Example 175, (S)-5-chloro-3-(4-(2-cyclohexyl-2-(1-methyl-1H-pyrazole-5-carboxamido)acetamido)phenyl)-2-methylpyridine 1-oxide], the IC50 in assay [1] (IL17AA FRET/ IL17Rawt IC50, TR-FRET, 5 nM IL-17A, 30 nM IL-17RA) was found to be 846 nM; in assay [2] (IL17AA + TNF IC50 IL-6, NHDF cells, IL-17AA 30 pM + TNF-α 6 pM), 130 nM.

On to `Cc1c(-c2ccc(NC(=O)[C@@H](NC(=O)c3ccc4n3CCN(C)C4)C3CCCCC3)cc2F)c(Cl)cc[n+]1[O-]` [Example 124, 4-chloro-3-(4-((S)-2-cyclohexyl-2-(2-methyl-1,2,3,4-tetrahydropyrrolo[1,2-a]pyrazine-6-carboxamido)acetamido)-2-fluorophenyl)-2-methylpyridine 1-oxide], for which the IC50 is 172 nM in assay [1] (setting [5]) and 8 nM in assay [2] (setting [6]).

As to `CCn1nccc1C(=O)NC(C(=O)Nc1ccc(-c2c(C)cc[n+]([O-])c2C)cc1)C1CCC(C(F)(F)F)CC1` [Example 7, 3-(4-((S)-2-(1-ethyl-1H-pyrazole-5-carboxamido)-2-((1r,4S)-4-(trifluoromethyl)cyclohexyl)acetamido)phenyl)-2,4-dimethylpyridine 1-oxide], the IC50 in assay [1] (IL17AA FRET/ IL17Rawt IC50, TR-FRET, biotinylated human IL-17A 5 nM, AF647-labeled human IL-17RA 30 nM) worked out at 46 nM; in assay [2] (IL17AA + TNF IC50 IL-6, NHDF cells, IL-17AA 30 pM plus TNF-α 6 pM) it was 26 nM.
